In US20260327195A1, “2-STYRYLBENZOTHIAZOLE DERIVATIVES AS ALPHA-SYNUCLEIN BINDING COMPOUNDS” (Eberhard Karls Universität Tübingen Medizinische Fakultät, priority 2023, published 2026):
Several values for one entry are separate records, joined by “and”; a condition that tells them apart may be missing. Equal entries are not always repeated. Where two headings read alike, the source gives them in different places.

Experiments:
[1] = biological target: T1, human recombinant αSYN fibrils (Homo sapiens, UniProt P37840); assay: [3H]PiB competition binding assay on αSYN fibrils; conditions: for Ki: competition against 6 nM [3H]PiB, read-out: Ki (mean ± SEM)
Method: (§1) Concentrations of αSYN and Aβ1-42 fibrils were as described above.
Plates were incubated on a shaker (MaxQ 6000, Thermo Fisher Scientific Inc., Marietta, OH, USA) at 50 rpm for 2 hours at 37° C., covered by removable sealing tapes (PerkinElmer, Waltham, MA, USA). […] Data points were fitted using non-linear regression analysis in GraphPad Prism (GraphPad Software, Inc., Version 8.4.0, La Jolla, USA).

[2] = biological target: T1, human recombinant αSYN fibrils; assay: [3H]MODAG-001 competition binding assay on αSYN fibrils; conditions: for competition with [3H]MODAG-001: result in words
Method: as §1
Plates were incubated on a shaker (MaxQ 6000, Thermo Fisher Scientific Inc., Marietta, OH, USA) at 50 rpm for 2 hours at 37° C., covered by removable sealing tapes (PerkinElmer, Waltham, MA, USA). Vacuum filtration and read-out were performed as disclosed in Kuebler, L. et al., [^11C]MODAG-001-towards a PET tracer targeting α-synuclein aggregates; European Journal of Nuclear Medicine and Molecular Imaging 2020, 48, 1759-1772. […] Data points were fitted using non-linear regression analysis in GraphPad Prism (GraphPad Software, Inc., Version 8.4.0, La Jolla, USA).

[3] = biological target: T2, synthetic human Aβ1-42 fibrils (Homo sapiens, UniProt P05067); assay: [3H]PiB competition binding assay on Aβ fibrils; conditions: result in words; FIG. 4b, 6b
T2 construct: chain cut from APP
Description: The method for Aβ1-42 fibrils generation was adapted from Bagchi, D. P. et al., Binding of the radioligand SIL23 to alpha-synuclein fibrils in Parkinson disease brain tissue establishes feasibility and screening approaches for developing a Parkinson disease imaging agent; PLoS One 2013, 8 (2), e55031, and described in Kuebler, L. et al., [^11C]MODAG-001-towards a PET tracer targeting α-synuclein aggregates; European Journal of Nuclear Medicine and Molecular Imaging 2020, 48, 1759-1772. Synthetic lyophilized human Aβ1-42 peptide (5 mg) with >90% purity (EMC Microcollections, Tuebingen, Germany) was dissolved in DMSO (221.5 μL), followed by the addition of deionized water (4.1 mL) and 1 M Tris-HCl (111 μL, pH 7.6) to reach a final monomeric concentration of 250 μM. Aggregation was induced by incubation in Eppendorf Thermomixer at 37° C. with shaking at 800 rpm for 72 hours. […]
Plates were incubated on a shaker (MaxQ 6000, Thermo Fisher Scientific Inc., Marietta, OH, USA) at 50 rpm for 2 hours at 37° C., covered by removable sealing tapes (PerkinElmer, Waltham, MA, USA). Vacuum filtration and read-out were performed as disclosed in Kuebler, L. et al., [^11C]MODAG-001-towards a PET tracer targeting α-synuclein aggregates; European Journal of Nuclear Medicine and Molecular Imaging 2020, 48, 1759-1772. […]

[4] = biological target: αSYN pathology in MSA human brain slices (Homo sapiens, UniProt P37840); assay: In vitro autoradiography on MSA human brain slices (cerebellum); type: binding
Method: (§2) Post-mortem human brain slices (10 μm thickness) were obtained from and the subject cases were analyzed by the Neurobiobank München (NBM, Munich, Germany), where tissues were collected on the basis of written informed consent according to the guidelines of the ethics committee of the Ludwig-Maximilians-University Munich, Germany (#345-13). The use of brain tissue samples in this study was approved by the ethics committee of the Faculty of Medicine at the University of Tuebingen (Ethics approval number: 813/2018BO2). Table 1 summarizes the information of the subjects from which samples were obtained and used in the experiment.
(§3) For autoradiography, brain slices were thawed for one hour before pre-incubation in BSA buffer for 25 minutes at room temperature. To determine total binding (TB), brain slices were incubated with the tracer (10 nM [^18F]PFSB, 10 nM [^18F]MFSB). Incubation of consecutive slices with the correspondent non-radioactive compounds (10 μM PFSB, […]) was performed to determine non-specific binding (NSB). The non-radioactive compounds were prepared by dissolving in DMSO to 10 mM, which yielded DMSO concentration of ≤0.1% in the final solution. Incubation was carried out for one hour at room temperature with subsequent washing in cold BSA buffer (three times for ten minutes) followed by three dipping in cold deionized water. After drying under UV lamps, brain slices were exposed to a storage phosphor screen (Molecular Dynamics, Caesarea, Israel) for 18 hours, which was then scanned in a phosphor imager (STORM 840, Molecular dynamics, Sunnyvale, CA, USA).
(§4) Quantitative data analysis was performed by drawing four regions of interest (ROIs) in relevant areas of the slice and one ROI next to it for background subtraction (ImageJ 1.8.0_172, National Institute of Health, Bethesda, Maryland, USA) (Schneider, C. A. et al., NIH Image to ImageJ: 25 years of image analysis; Nat Methods 2012, 9 (7), 671-5). Specific binding (SB) is obtained by subtracting NSB from TB. The SB disease/SB control ratio was calculated by dividing by the SB in diseased tissues with the respective SB in control tissues.

[5] = biological target: αSYN pathology in PD human brain slices (Homo sapiens, UniProt P37840); assay: In vitro autoradiography on PD human brain slices (frontal cortex); type: binding; conditions: 10 nM tracer; NSB with 10 μM non-radioactive compound
Method: as §2
For autoradiography, brain slices were thawed for one hour before pre-incubation in BSA buffer for 25 minutes at room temperature. To determine total binding (TB), brain slices were incubated with the tracer (10 nM [^18F]PFSB, 10 nM [^18F]MFSB). […]
Quantitative data analysis was performed by drawing four regions of interest (ROIs) in relevant areas of the slice and one ROI next to it for background subtraction (ImageJ 1.8.0_172, National Institute of Health, Bethesda, Maryland, USA) (Schneider, C. A. et al., NIH Image to ImageJ: 25 years of image analysis; Nat Methods 2012, 9 (7), 671-5). […] The SB disease/SB control ratio was calculated by dividing by the SB in diseased tissues with the respective SB in control tissues.

[6] = biological target: T3, Aβ plaques in AD human brain slices (Homo sapiens, UniProt P05067); assay: In vitro autoradiography on AD human brain slices (frontal cortex); type: binding
T3 construct: mainly Abeta40/42 cut from APP) in post-mortem AD frontal cortex slices
Method: as §2, §3, §4

[7] = methylated compounds, two data points
[8] = non-methylated compounds, two data points (three for 9a, 14a, 15a, 17a, 18a; single for 12a)
[9] = 10 nM tracer, NSB with 10 μM non-radioactive compound

T3 sequence (P05067 672-713 limits assumed): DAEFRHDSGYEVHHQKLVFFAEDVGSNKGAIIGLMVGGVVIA
T2 sequence (P05067 672-713): as the sequence (P05067 672-713 limits assumed) above

## CN1CCN(c2ccc(C=Cc3sc4ccccc4[n+]3C)cc2)CC1 [RB2, 3-methyl-2-(4-(4-methylpiperazin-1-yl)styryl)benzo[d]thiazol-3-ium Iodide, reference compound]
[1]; [7]
  Ki: > 400 nM

## Fc1ccc2nc(C=Cc3ccc(N4CCOCC4)cc3)sc2c1 [Compound 45, 4-(4-(2-(6-fluorobenzo[d]thiazol-2-yl)vinyl)phenyl)morpholine]
[1]; [3H]PiB competition, versus PFSB
  improvement of affinity (Ki) of MFSB compared to PFSB: 2.5 factor
[2]; [3H]MODAG-001 competition, versus PFSB
  fold lower Ki of MFSB than PFSB: 4.6 fold
[2]
  competition with [3H]MODAG-001: moderate to good competition

## C(=Cc1nc2ccccc2s1)c1ccc(N2CCOCC2)cc1 [Compound 15a, 4-(4-(2-(benzo[d]thiazol-2-yl)vinyl)phenyl)morpholine]
[1]; result in words
  affinity relative to N-piperidine analog 20: comparable affinity

## C[n+]1c(C=Cc2ccc(N3CCSCC3)cc2)sc2ccccc21 [Compound 16b, 3-methyl-2-(4-thiomorpholinostyryl)benzo[d]thiazol-3-ium Iodide]
[1]; [7]
  Ki: > 400 nM

## Fc1ccc2nc(C=CC=Cc3ccc(N4CCCC4)cc3)sc2c1 [Compound 44, 6-fluoro-2-(4-(4-(pyrrolidin-1-yl)phenyl)buta-1,3-dien-1-yl)benzo[d]thiazole]
[3]
  competition with [3H]PiB / binding to Aβ fibrils: the binding to Aβ remained low

## COc1cccc2sc(C=Cc3ccc(N4CCCCC4)cc3)nc12 [Compound 2a, 4-methoxy-2-(4-(piperidin-1-yl)styryl)benzo[d]thiazole]
[1]; [8]
  Ki: > 400 nM

## CN(C)c1ccc(C=Cc2sc3ccccc3[n+]2C)cc1 [Compound 19b, 2-(4-(dimethylamino)styryl)-3-methylbenzo[d]thiazol-3-ium Iodide]
[1]; [7]
  Ki: > 400 nM

## Cc1cccc2nc(C=Cc3ccc(N4CCCCC4)cc3)sc12 [Compound 10a, 7-methyl-2-(4-(piperidin-1-yl)styryl)benzo[d]thiazole]
[1]; [8]
  Ki: > 400 nM

## Fc1ccc2nc(C=CC=Cc3ccc(N4CCCCC4)cc3)sc2c1 [Compound 43, 6-fluoro-2-(4-(4-(piperidin-1-yl)phenyl)buta-1,3-dien-1-yl)benzo[d]thiazole]
[3]
  competition with [3H]PiB / binding to Aβ fibrils: the binding to Aβ remained low

## C[n+]1c(C=Cc2ccc(N3CCCCC3)cc2)sc2cccc(F)c21 [Compound 3b, 4-fluoro-3-methyl-2-(4-(piperidin-1-yl)styryl)benzo[d]thiazol-3-ium 4-nitrobenzenesulfonate]
[1]; [7]
  Ki: > 400 nM

## CN(C)c1ccc(C=Cc2nc3ccccc3s2)cc1 [Compound 19a, 4-(2-(benzo[d]thiazol-2-yl)vinyl)-N,N-dimethylaniline]
[1]; [8]
  Ki: > 400 nM

## C[n+]1c(C=Cc2ccc(N3CCOCC3)cc2)sc2ccccc21 [Compound 15b, 3-methyl-2-(4-morpholinostyryl)benzo[d]thiazol-3-ium Iodide]
[1]; [7]
  Ki: > 400 nM

## C[n+]1c(C=Cc2ccc(N3CCCCC3)cc2)sc2c(F)cccc21 [Compound 12b, 7-fluoro-3-methyl-2-(4-(piperidin-1-yl)styryl)benzo[d]thiazol-3-ium Iodide]
[1]; [7]
  Ki: > 400 nM

## C[n+]1c(C=Cc2ccc(N3CCC(F)CC3)cc2)sc2ccccc21 [Compound 18b, 2-(4-(4-fluoropiperidin-1-yl)styryl)-3-methylbenzo[d]thiazol-3-ium Iodide]
[1]; [7]
  Ki: > 400 nM

## [18F]c1ccc2nc(/C=C/c3ccc(N4CCCCC4)cc3)sc2c1 [[^18F]PFSB]
[4]; [9]
  SB disease/SB control, MSA1/cerebellum ctrl: 3.73
  SB disease/SB control, MSA2/cerebellum ctrl: 4.15
[4]; MSA patients, same brain area, 10 nM tracer
  specific binding ratio of MSA brain slices compared to the control: 3.94±0.30
[4]; autoradiography, result in words, FIG. 12
  selectivity towards αSYN over Aβ: selectivity towards αSYN over Aβ
[4]; result in words, FIG. 12
  affinity to αSYN pathology: displayed affinity to αSYN pathology
[5]
  SB disease/SB control, PD/frontal cortex ctrl: 1.51
[6]; [9]
  SB disease/SB control, AD/frontal cortex ctrl: 1.06 and 1.03
[6]; result in words, FIG. 12
  binding in AD brain regions with Aβ plaques / AD/frontal cortex SB ratio in words: no increased binding

## Fc1ccc2nc(C=Cc3ccc(N4CCCCC4)cc3)sc2c1 (mixture of isomers) [Compound 9a, 6-fluoro-2-(4-(piperidin-1-yl)styryl)benzo[d]thiazole]
[2]
  competition with [3H]MODAG-001: moderate to good competition

## COc1cccc2nc(C=Cc3ccc(N4CCCCC4)cc3)sc12 [Compound 11a, 7-methoxy-2-(4-(piperidin-1-yl)styryl)benzo[d]thiazole]
[1]; [8]
  Ki: > 400 nM

## C[n+]1c(-c2ccc(N3CCCCC3)cc2)sc2ccccc21 [Compound 13b, 3-methyl-2-(4-(piperidin-1-yl)phenyl)benzo[d]thiazol-3-ium]
[1]; [7]
  Ki: > 400 nM
